Where two headings read alike, the source gives them in different places.
Experiments:
[1] = tested on: Shattercane (SHCA); type: in vivo
[2] = tested on: Velvetleaf (VELE); test: Greenhouse test Procedure VI (Examples 59-61; Tables 58-60); type: in vivo, Abutilon theophrasti; conditions: Antidote + Biocide No. 1 in furrow
Description: This procedure describes interaction among herbicide, biocide and antidote when the herbicide is incorporated in a soil cover layer and the biocide and the antidote are applied in a soil furrow containing crop seed before emergence of the crop. The soil and seeding depth were described in Procedure IV. A first container was designated as an untreated control, a second container was designated as a herbicide control, a third container was designated as a herbicide + biocide control and a fourth container as a herbicide + biocide + antidote test container. The biocide and antidote were formulated as granules. The biocide was applied to the soil furrows of the third and fourth containers at an application rate of 1.1 mg of active compound per cm of row. The antidote was applied to the soil furrow of the fourth container at an application rate of 0.37 mg of active compound per cm of row. A measured amount of the herbicide dispersed or dissolved in acetone was applied to a measured quantity of soil. The quantity of soil treated with the herbicide was thoroughly mixed to incorporate the herbicide. Samples of this soil were used to cover the seed beds of the second, third and fourth containers. For each test series, the seed bed of the first container was likewise covered by a soil layer not treated with herbicide and without biocide or antidote in the soil furrow.
The containers were then placed on a bench in a greenhouse. Watering was by subirrigation plus overhead irrigation after the plants emerged. All treatments were run in duplicate. Plant response was observed according to Procedure IV. Variations in this procedure will be noted in the examples.
The procedure used in this example involved the PPI application of biocide and safener as described in general Procedure VI above. The "primary" herbicide in this test was MON-12000 (Herbi-cide No. 1) in admixture with other herbicides designated as "co-herbicides", which included LASSO® (co-herbicide B); DUAL® (C); acetochlor (A); EPTAM® (D); butylate (E) and PURSUIT® (K).
The in-furrow treatments with blended COUNTER 15G and antidote mixtures was as described in above examples. MON-12000 and the co-herbicides were formulated in acetone and applied as tank mixtures, incorporated into Dupo silt loam soil with a rotary drum mixer. Subsamples were used to cover seeded and in-furrow treated 10.2 cm pots. Pots were placed on greenhouse benches and subirrigated. Plant responses were observed thirteen days after PPI initiation. Test results (average of two replications) are shown in Table 58, wherein giant foxtail (GIFT) was used in place of shattercane.
This test was conducted in the same manner used in Example 59. All biocide and antidote components were the same and in these tests XRD-498 (Herbicide No. 21) was the prime herbicide. Co-herbicides are shown in Table 59 together with test data.
In one other test conducted as described in the preceding examples in this series of tests, the herbicide PURSUIT® was used as the primary herbicide (in the context of this invention) together with the same insecticide and safeners as above and the co-herbicides shown in Table 60, together with test results.

[3] = tested on: Giant foxtail (GIFT); test: Greenhouse test Procedure VII (same examples); type: in vivo
Description: This procedure describes interaction among herbicide, biocide and antidote when the biocide and the antidote is applied to a soil furrow containing crop seed before emergence of the crop and the herbicide is applied after emergence of the crop and weeds. The soil and planting depth was described in Procedure IV. The containers for comparison, the biocide and antidote applications to soil furrows were described in Procedure VI. In this procedure, the seed beds of the first, second, third and fourth containers are covered by soil layers not treated with herbicide. The containers were then placed on a bench in a greenhouse and subirrigated as required for the duration of the test. The herbicide, dispersed or dissolved in water containing 0.25% v/v nonionic surfactant (X-77) was applied by a track sprayer (187 L/ha) to the emerged plants of the second, third and fourth containers about five days after planting. All treatments were run in duplicate. Plant response was observed according to Procedure IV. Variations in this procedure will be noted in the examples.
In these tests (according to Procedure VII) the safeners in solution with acetone were applied in furrow to the soil, followed by COUNTER 15G granules at 227 g/305 m (8 oz./1000'). Applications were made in alternate rows in two separate 13.7 cm x 27.7 cm pans containing Dupo silt loam. Pans were seeded 1.3 cm deep, placed on benches in a greenhouse and subirrigated. BEACON was formulated in water with 0.25% v/v X-77 surfactant and applied by track sprayer at a rate of 187 L/Ha (20 gal/A). Weed species in this test were giant foxtail, shattercane and velvetleaf. The herbicide was applied five (5) days after PPI initiation and observation of test result (shown in Table 47) made eight (8) days later.
In Table 47 COUNTER 15G is abbreviated as "C" and the antidotes as "A" in the column headings which indicate the "C + A" ratios used in the tests. Control and COUNTER treatments are average of four (4) replications and COUNTER + Antidote treatments, average of 2 reps.

[4] = Antidote 4.48 + Biocide No. 1 8.96 Kg/Ha PPI, Herb. No. 8 0.07, 5 DAP, before herbicide application
[5] = Antidote 4.48 + Biocide No. 1 8.96 Kg/Ha PPI, Herb. No. 8 0.07 POE, 13 DAP
[6] = Antidote 4.48 + Biocide No. 1 8.96 Kg/Ha PPI, Herbicide No. 7 0.28 POE, 13 days after planting
[7] = Table 14: Herbicide No. 7 (ACCENT) 0.84 Kg/Ha POE + Biocide No. 2 8.96 Kg/Ha PPI + antidote 4.48 Kg/Ha PPI, 13 days after planting, 8 days after herbicide
[8] = […], 13 days after planting, 8 days after herbicide
[9] = […], observed 10 days after herbicide application
[10] = Herbicide No. 11 0.0044 Kg/Ha PPI
[11] = Herbicide No. 12 0.0044 Kg/Ha PPI
[12] = Herbicide No. 13 0.0011 Kg/Ha PPI
[13] = Herbicide No. 13 0.0022 Kg/Ha PPI
[14] = Herbicide No. 14 0.07 Kg/Ha PPI
[15] = Herbicide No. 16 0.07 Kg/Ha PPI, 13 days
[16] = Herbicide No. 17 0.14 Kg/Ha PPI, 13 days
[17] = Herbicide No. 18 0.04 Kg/Ha PPI, 13 days
[18] = Herbicide No. 20 1.12 Kg/Ha PPI, 13 days
[19] = Herbicide No. 22 0.28 Kg/Ha PPI, 13 days
[20] = Herbicide No. 24 0.14 Kg/Ha PPI, 13 days
[21] = Herbicide No. 25 0.14 Kg/Ha PPI, 13 days
[22] = Herbicide No. 26 2.24 Kg/Ha PPI, 13 days
[23] = Herbicide No. 28 0.04 Kg/Ha PPI, 13 days
[24] = Antidote + Biocide No. 1 in furrow, Herbicide No. 1 0.14 Kg/Ha POE, 8 days after POE
[25] = Antidote + Biocide No. 1 in furrow, Herbicide No. 4 0.17 Kg/Ha POE, 8 days after POE
[26] = Antidote + Biocide No. 1 in furrow, Herbicide No. 5 0.07 Kg/Ha POE, 8 days after POE
[27] = Antidote + Biocide No. 1 in furrow, Herbicide No. 6 0.01 Kg/Ha POE
[28] = Antidote + Biocide No. 1 in furrow, Herbicide No. 7 0.56 Kg/Ha POE, 8 days after POE
[29] = Antidote + Biocide No. 1 in furrow, Herbicide No. 9 0.009 Kg/Ha POE
[30] = Antidote + Biocide No. 1 in furrow, Herbicide No. 10 0.002 Kg/Ha POE, 8 days after POE
[31] = Antidote + Biocide No. 1 in furrow, Herbicide No. 15 0.0044 Kg/Ha POE, 8 days after POE
[32] = Antidote + Biocide No. 1 in furrow, Herbicide No. 16 0.01 Kg/Ha POE
[33] = Antidote + Biocide No. 1 in furrow, Herbicide No. 18 0.0044 Kg/Ha POE
[34] = Antidote + Biocide No. 1 in furrow, Herbicide No. 19 0.28 Kg/Ha POE
[35] = Antidote + Biocide No. 1 in furrow, Herbicide No. 21 0.14 Kg/Ha POE
[36] = Antidote + Biocide No. 1 in furrow, Herbicide No. 23 0.0006 Kg/Ha POE

## N#CCOc1ccc(Cl)c2cccnc12 [compound 33]
[1]; [4]
  % Inhibition 5 DAP SHCA: 20%
[1]; [5]
  % Inhibition 13 DAP SHCA: 90%
[1]; [6]
  % Inhibition SHCA: 70%
[1]; [7]
  % Inhibition SHCA: 75%
[1]; [8]
  % Inhibition SHCA: 90%
[1]; [9]
  % Inhibition SHCA: 55%
[1]; in vivo
  % Inhibition 5 DAP SHCA: 70%
  % Inhibition 13 DAP SHCA: 90%
[2]; Herbicide No. 6 0.14 Kg/Ha PPI
  % Inhibition VELE: 70%
[2]; [10]
  % Inhibition VELE: 65%
[2]; [11]
  % Inhibition VELE: 60%
[2]; [12]
  % Inhibition VELE: 20%
[2]; [13]
  % Inhibition VELE: 50%
[2]; [14]
  % Inhibition VELE: 85%
[2]; [15]
  % Inhibition VELE: 65%
[2]; [16]
  % Inhibition VELE: 75%
[2]; [17]
  % Inhibition VELE: 40%
[2]; [18]
  % Inhibition VELE: 90%
[2]; [19]
  % Inhibition VELE: 90%
[2]; [20]
  % Inhibition VELE: 95%
[2]; [21]
  % Inhibition VELE: 70%
[2]; [22]
  % Inhibition VELE: 50%
[2]; [23]
  % Inhibition VELE: 80%
[3]; [24]
  % Inhibition GIFT: 0%
[3]; [25]
  % Inhibition GIFT: 0%
[3]; [26]
  % Inhibition GIFT: 0%
[3]; [27]
  % Inhibition GIFT: 65%
[3]; [28]
  % Inhibition GIFT: 80%
[3]; [29]
  % Inhibition GIFT: 25%
[3]; [30]
  % Inhibition GIFT: 0%
[3]; [31]
  % Inhibition GIFT: 0%
[3]; [32]
  % Inhibition GIFT: 30%
[3]; [33]
  % Inhibition GIFT: 65%
[3]; [34]
  % Inhibition GIFT: 35%
[3]; [35]
  % Inhibition GIFT: 30%
[3]; [36]
  % Inhibition GIFT: 25%

## CC1(C)OC(c2ccco2)CN1C(=O)C(Cl)Cl (stereo not shown) [compound 1]
[1]; [4]
  % Inhibition 5 DAP SHCA: 0%
[1]; [5]
  % Inhibition 13 DAP SHCA: 80%
[1]; [6]
  % Inhibition SHCA: 75%
[1]; [7]
  % Inhibition SHCA: 70%
[1]; [8]
  % Inhibition SHCA: 90%
[1]; […], observed 9 days later (Table 29)
  % Inhibition SHCA: 70%
[1]; […], observed 9 days later (Table 30)
  % Inhibition SHCA: 30%
[1]; [9]
  % Inhibition SHCA: 55%
[1]; in vivo
  % Inhibition 5 DAP SHCA: 20%
  % Inhibition 13 DAP SHCA: 75%
[2]; Herbicide No. 6 0.14 Kg/Ha PPI
  % Inhibition VELE: 70%
[2]; [10]
  % Inhibition VELE: 75%
[2]; [11]
  % Inhibition VELE: 55%
[2]; [12]
  % Inhibition VELE: 25%
[2]; [13]
  % Inhibition VELE: 60%
[2]; [14]
  % Inhibition VELE: 85%
[2]; [15]
  % Inhibition VELE: 60%
[2]; [16]
  % Inhibition VELE: 80%
[2]; [17]
  % Inhibition VELE: 50%
[2]; [18]
  % Inhibition VELE: 95%
[2]; [19]
  % Inhibition VELE: 80%
[2]; [20]
  % Inhibition VELE: 90%
[2]; [21]
  % Inhibition VELE: 75%
[2]; [22]
  % Inhibition VELE: 65%
[2]; [23]
  % Inhibition VELE: 90%
[3]; [24]
  % Inhibition GIFT: 0%
[3]; [25]
  % Inhibition GIFT: 0%
[3]; [26]
  % Inhibition GIFT: 0%
[3]; [27]
  % Inhibition GIFT: 60%
[3]; [28]
  % Inhibition GIFT: 85%
[3]; [29]
  % Inhibition GIFT: 30%
[3]; [30]
  % Inhibition GIFT: 0%
[3]; [31]
  % Inhibition GIFT: 20%
[3]; [32]
  % Inhibition GIFT: 35%
[3]; [33]
  % Inhibition GIFT: 65%
[3]; [34]
  % Inhibition GIFT: 35%
[3]; [35]
  % Inhibition GIFT: 35%
[3]; [36]
  % Inhibition GIFT: 20%
[3]; Herbicide No. 1 0.14 Kg/Ha POE + Biocide No. 1 in furrow, no antidote, 8 days after POE
  % Inhibition GIFT: 0%
[3]; Herbicide No. 1 0.14 Kg/Ha POE alone, 8 days after POE
  % Inhibition GIFT: 0%

Source: patent publication EP0565593B1, “REDUCING PESTICIDAL INTERACTIONS IN CROPS” (priority 1990, dated 1992)
